Results as given in article PMC5741288 (Pain Reports, 2016).

Key:
capsaicin-induced flare = test: Block of topical capsaicin-induced flare in rats; type: in vivo, Sprague Dawley rats
[1] = cited from earlier work

- Estimated plasma exposure associated with ED50 (capsaicin-induced flare; rat, data not shown): 67.6 ± 44.9 ng/mL
Structure (SMILES): CC(C)(O)c1ccccc1-c1ccc2[nH]c(/C=C/c3ccc(C(F)(F)F)cc3)nc2c1 [JNJ-39439335, trans-2-(2-{2-[2-(4-Trifluoromethyl-phenyl)-vinyl]-1H-benzimidazol-5-yl}-phenyl)-propan-2-ol]
- Capsaicin-induced flare (capsaicin-induced flare; pretreatment 0.3–30 mg/kg, p.o.): blocked the capsaicin-induced flare in a dose-dependent fashion
- Flare response induced by 1000 μg topical capsaicin (capsaicin-induced flare; rat, single oral dose of 10 mg/kg): completely blocked
- Safety margins in 4-week toxicology studies ([1]; rat and dog): acceptable safety margins
- AUC24h at the no-observed-adverse-effect level dose ([1]; rat, most sensitive animal species): 10,700 ng·h·mL^−1
